From ChEMBL document CHEMBL1201862, “PubChem BioAssay data set” (2004)
Several values for one entry are separate records, joined by “and”; a condition that tells them apart may be missing. Equal entries are not always repeated.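 Grown in 96-well plates, cells were treated for 48 hours with each compound at five concentrations. Insufficient inhibition: endpoint recorded as highest concentration tested. GI50: concentration for 50% inhibition of growth.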 Activity calls are given as the source filed them. Rule as the data show it: active = GI50 up to about 1.1 µM and inactive = higher.

Tests used:
Experiment in all cases: NCI tumour cell line growth inhibition, 48 h
BT-549 = tested on: BT-549
MDA-N = tested on: MDA-N
CCRF-CEM = tested on: CCRF-CEM
HT-29 = tested on: HT-29
SK-MEL-5 = tested on: SK-MEL-5
NCI-H460 = tested on: NCI-H460
SF-268 = tested on: SF-268
A549 = tested on: A549
KM12 = tested on: KM12
ACHN = tested on: ACHN
NCI-H226 = tested on: NCI-H226
M14 = tested on: M14
SN12C = tested on: SN12C
U-251 = tested on: U-251
HOP-92 = tested on: HOP-92
MDA-MB-231 = tested on: MDA-MB-231
UACC-62 = tested on: UACC-62
PC-3 = tested on: PC-3
A498 = tested on: A498
SR = tested on: SR

NNC(=O)c1cc(=O)[nH][nH]1
GI50 (BT-549): > 100 µM (inactive)
GI50 (MDA-N): > 100 µM (inactive)
GI50 (CCRF-CEM): > 100 µM (inactive)
GI50 (HT-29): > 100 µM (inactive)
GI50 (SK-MEL-5): > 100 µM (inactive)
GI50 (NCI-H460): > 100 µM (inactive)
GI50 (SF-268): > 100 µM (inactive)
GI50 (A549): > 100 µM (inactive)
GI50 (KM12): > 100 µM (inactive)
GI50 (ACHN): > 100 µM (inactive)
GI50 (NCI-H226): > 100 µM (inactive)
GI50 (M14): > 100 µM (inactive)
GI50 (SN12C): > 100 µM (inactive)
GI50 (U-251): > 100 µM (inactive)
GI50 (HOP-92): > 100 µM (inactive)
GI50 (MDA-MB-231): > 100 µM (inactive)
GI50 (UACC-62): > 100 µM (inactive)
GI50 (PC-3): > 100 µM (inactive)

COc1cccc2c(=O)c3c(O)c4cc(N(C)C)ccc4c(OC(C)=O)c3oc12
GI50 (BT-549): 10.2 µM (inactive)
GI50 (MDA-N): 13.7 µM (inactive)
GI50 (CCRF-CEM): 5.33 µM (inactive)
GI50 (A498): 21 µM (inactive)
GI50 (HT-29): 14.1 µM (inactive)
GI50 (SK-MEL-5): 12.6 µM (inactive)
GI50 (NCI-H460): 18.2 µM (inactive)
GI50 (SF-268): 17 µM (inactive)
GI50 (A549): 26.1 µM (inactive)
GI50 (KM12): 13 µM (inactive)
GI50 (ACHN): 15.2 µM (inactive)
GI50 (NCI-H226): 23.2 µM (inactive)
GI50 (M14): 9.98 µM (inactive)
GI50 (SN12C): 12.9 µM (inactive)
GI50 (U-251): 14 µM (inactive)
GI50 (HOP-92): 17.4 µM (inactive)
GI50 (MDA-MB-231): 11.4 µM (inactive)
GI50 (UACC-62): 12.9 µM (inactive)
GI50 (PC-3): 17.6 µM (inactive)

CN1CCN(/C(N)=C(\C#N)C(=O)Nc2ccc(Cl)cc2)CC1
GI50 (BT-549): > 100 µM (inactive)
GI50 (MDA-N): 52.4 µM (inactive)
GI50 (CCRF-CEM): 30.1 µM (inactive)
GI50 (SR): 35.1 µM (inactive)
GI50 (A498): 40.4 µM (inactive)
GI50 (HT-29): > 100 µM (inactive)
GI50 (SK-MEL-5): 27.5 µM (inactive)
GI50 (NCI-H460): 74.6 µM (inactive)
GI50 (A549): > 100 µM (inactive)
GI50 (KM12): 59 µM (inactive)
GI50 (ACHN): > 100 µM (inactive)
GI50 (NCI-H226): > 100 µM (inactive)
GI50 (M14): 30.6 µM (inactive)
GI50 (SN12C): > 100 µM (inactive)
GI50 (U-251): 96.8 µM (inactive)
GI50 (HOP-92): > 100 µM (inactive)
GI50 (UACC-62): 23 µM (inactive)
GI50 (PC-3): 39.8 µM (inactive)

COc1ccc(C(SC2C(O)C(CO)OC2n2ccc(=O)[nH]c2=O)(c2ccccc2)c2ccc(OC)cc2)cc1 (stereo unspecified)
GI50 (BT-549): 16.6 µM (inactive)
GI50 (MDA-N): 9.66 µM (inactive)
GI50 (CCRF-CEM): 23.8 µM (inactive)
GI50 (HT-29): 17.6 µM (inactive)
GI50 (SK-MEL-5): 14.7 µM (inactive)
GI50 (NCI-H460): 10.9 µM (inactive)
GI50 (SF-268): 17.9 µM (inactive)
GI50 (A549): 16.4 µM (inactive)
GI50 (KM12): 15.8 µM (inactive)
GI50 (ACHN): 29 µM (inactive)
GI50 (NCI-H226): 16.6 µM (inactive)
GI50 (M14): 11.3 µM (inactive)
GI50 (SN12C): 14.4 µM (inactive)
GI50 (U-251): 13.9 µM (inactive)
GI50 (HOP-92): 15.6 µM (inactive)
GI50 (MDA-MB-231): 16.1 µM (inactive)
GI50 (UACC-62): 15.9 µM (inactive)
GI50 (PC-3): 14.9 µM (inactive)

NC1=C(Cl)C(=O)c2c(O)ccc(O)c2C1=O
GI50 (BT-549): 1.93 µM (inactive)
GI50 (MDA-N): 1.77 µM (inactive)
GI50 (CCRF-CEM): 4.09 µM (inactive)
GI50 (A498): 14.1 µM (inactive)
GI50 (HT-29): 2.54 µM (inactive)
GI50 (SK-MEL-5): 0.735 µM (active)
GI50 (NCI-H460): 1.91 µM (inactive)
GI50 (SF-268): 3.83 µM (inactive)
GI50 (A549): 2.2 µM (inactive)
GI50 (KM12): 2.92 µM (inactive)
GI50 (ACHN): 4.88 µM (inactive)
GI50 (NCI-H226): 11.6 µM (inactive)
GI50 (M14): 1.85 µM (inactive)
GI50 (SN12C): 3.28 µM (inactive)
GI50 (U-251): 4.12 µM (inactive)
GI50 (HOP-92): 12.1 µM (inactive)
GI50 (MDA-MB-231): 5.73 µM (inactive)
GI50 (UACC-62): 1.59 µM (inactive)
GI50 (PC-3): 3.47 µM (inactive)

O[C@H]1[C@H](O)[C@@H](O)[C@H](O)[C@@H](O)[C@H]1O [INOSITOL]
GI50 (BT-549): > 1000 µM (inactive)
GI50 (CCRF-CEM): 1.7 µM (inactive)
GI50 (SR): 56.6 µM (inactive)
GI50 (A498): > 1000 µM (inactive)
GI50 (HT-29): > 1000 µM (inactive)
GI50 (SK-MEL-5): > 1000 µM (inactive)
GI50 (NCI-H460): > 1000 µM (inactive)
GI50 (SF-268): > 1000 µM (inactive)
GI50 (A549): > 1000 µM (inactive)
GI50 (ACHN): > 1000 µM (inactive)
GI50 (NCI-H226): > 1000 µM (inactive)
GI50 (M14): > 1000 µM (inactive)
GI50 (SN12C): > 1000 µM (inactive)
GI50 (U-251): > 1000 µM (inactive)
GI50 (HOP-92): > 1000 µM (inactive)
GI50 (MDA-MB-231): > 1000 µM (inactive)
GI50 (UACC-62): > 1000 µM (inactive)
GI50 (PC-3): > 1000 µM (inactive)

O=C(/C=C/c1ccc(Oc2cc(C(=O)/C=C/c3ccc(O)cc3)c(O)cc2O)cc1)c1ccc(O)cc1O [RHUSCHALCONE II]
GI50 (BT-549): 9.84 µM (inactive)
GI50 (CCRF-CEM): 2.51 µM (inactive)
GI50 (SR): 3.35 µM (inactive)
GI50 (A498): 2.65 µM (inactive)
GI50 (HT-29): 1.92 µM (inactive)
GI50 (SK-MEL-5): 4.4 µM (inactive)
GI50 (NCI-H460): 7.89 µM (inactive)
GI50 (SF-268): 4.83 µM (inactive)
GI50 (A549): 15.5 µM (inactive)
GI50 (KM12): 2.15 µM (inactive)
GI50 (ACHN): 9.29 µM (inactive)
GI50 (M14): 10.3 µM (inactive)
GI50 (SN12C): 4.41 µM (inactive)
GI50 (U-251): 3.89 µM (inactive)
GI50 (HOP-92): 16.5 µM (inactive)
GI50 (MDA-MB-231): 5.08 µM (inactive)
GI50 (UACC-62): 4.62 µM (inactive)
GI50 (PC-3): 5.27 µM (inactive)

COc1cc(-c2oc3c(OC)c(OC)cc(O)c3c(=O)c2OC)ccc1O [TERNATIN]
GI50 (BT-549): 5.01 µM (inactive)
GI50 (MDA-N): 15.2 µM (inactive)
GI50 (CCRF-CEM): 3.38 µM (inactive) and 2.42 µM (inactive)
GI50 (HT-29): > 100 µM (inactive)
GI50 (A549): 14.9 µM (inactive)
GI50 (MDA-MB-231): 15.2 µM (inactive)
GI50 (UACC-62): 8.39 µM (inactive) and 4.7 µM (inactive)
GI50 (PC-3): 20.4 µM (inactive)
